Test results taken from ChEMBL document CHEMBL5257025, “Artemisinin-Derived Dimers: Potent Antimalarial and Anticancer Agents” (J Med Chem, 2016).

Test system: Plasmodium falciparum
Experiment: Antiplasmodial activity against Plasmodium falciparum NF54 assessed as reduction in malarial growth
Assay type: functional, organism-based
Conditions: not given

Compared with COc1cc(OC)c(C2O[C@H]3O[C@@]4(C)CC[C@H]5[C@H](C)CC[C@@H]([C@H]2C)[C@@]35OO4)cc1C1O[C@H]2O[C@@]3(C)CC[C@H]4[C@H](C)CC[C@@H]([C@H]1C)[C@@]24OO3 (stereo not given in full), C=C(CC1O[C@H]2O[C@@]3(C)CC[C@H]4[C@H](C)CC[C@@H]([C@H]1C)[C@@]24OO3)CC1O[C@H]2O[C@@]3(C)CC[C@H]4[C@H](C)CC[C@@H]([C@H]1C)[C@@]24OO3 (stereo not given in full) is 18-fold higher in IC50: 1.3 nM for the first, 24 nM for the second. The first is the more potent here.

C[C@H]1[C@H](CCC(=O)c2ccc(C(=O)C[C@@H]3O[C@H]4O[C@@]5(C)CC[C@H]6[C@H](C)CC[C@@H]([C@H]3C)[C@@]46OO5)cc2)O[C@H]2O[C@@]3(C)CC[C@H]4[C@H](C)CC[C@@H]1[C@@]24OO3 and C[C@H]1[C@H](CC(=O)c2ccc(C(=O)CC[C@H]3O[C@H]4O[C@@]5(C)CC[C@H]6[C@H](C)CC[C@@H]([C@H]3C)[C@@]46OO5)cc2)O[C@H]2O[C@@]3(C)CC[C@H]4[C@H](C)CC[C@@H]1[C@@]24OO3 are within 1.5-fold of each other in IC50: 1.9 nM for the first, 1.7 nM for the second.

C[C@@H]1CC[C@H]2[C@@H](C)C(CC#Cc3ccc(C#CCC4O[C@H]5O[C@@]6(C)CC[C@H]7[C@H](C)CC[C@@H]([C@H]4C)[C@@]57OO6)cc3)O[C@H]3O[C@@]4(C)CC[C@@H]1[C@]32OO4 (stereo not given in full) and C[C@@H]1CC[C@H]2[C@@H](C)C(CC#Cc3cccc(C#CCC4O[C@H]5O[C@@]6(C)CC[C@H]7[C@H](C)CC[C@@H]([C@H]4C)[C@@]57OO6)c3)O[C@H]3O[C@@]4(C)CC[C@@H]1[C@]32OO4 (stereo not given in full) are within 1.5-fold of each other in IC50: 30 nM for the first, 36 nM for the second.

First: C[C@@H]1CC[C@H]2[C@@H](C)C(CC(=O)c3cccc(C(=O)CC4O[C@H]5O[C@@]6(C)CC[C@H]7[C@H](C)CC[C@@H]([C@H]4C)[C@@]57OO6)c3)O[C@H]3O[C@@]4(C)CC[C@@H]1[C@]32OO4 (stereo in doubt)
Second: C[C@@H]1CC[C@H]2[C@@H](C)C(/C=C/c3cccc(/C=C/C4O[C@@H]5O[C@]6(C)CC[C@@H]7[C@@H](C)CC[C@H]([C@@H]4C)[C@]57OO6)c3)O[C@H]3O[C@@]4(C)CC[C@@H]1[C@]32OO4 (stereo not given in full)
The IC50 of the first is 41-fold lower: 1.9 nM for the first, 77 nM for the second.

First: C[C@@H]1CC[C@H]2[C@@H](C)C(/C=C\c3ccc(/C=C\C4O[C@H]5O[C@@]6(C)CC[C@H]7[C@H](C)CC[C@@H]([C@H]4C)[C@@]57OO6)cc3)O[C@H]3O[C@@]4(C)CC[C@@H]1[C@]32OO4 (stereo not given in full)
Second: C[C@@H]1CC[C@H]2[C@@H](C)C(/C=C\c3cccc(/C=C/C4O[C@H]5O[C@@]6(C)CC[C@H]7[C@H](C)CC[C@@H]([C@H]4C)[C@@]57OO6)c3)O[C@H]3O[C@@]4(C)CC[C@@H]1[C@]32OO4 (stereo not given in full)
The IC50 of the first is 1.9-fold lower: 18 nM for the first, 35 nM for the second.

Test system: KB
Experiment: Antiproliferative activity against human KB cells assessed as reduction in cell viability incubated for 48 hrs by MTT assay
Assay type: functional, cell-based
Conditions: not given

Going from C[C@@H]1CC[C@H]2[C@@H](C)C(OC/C=C\COC3O[C@H]4O[C@@]5(C)CC[C@H]6[C@H](C)CC[C@@H]([C@H]3C)[C@@]46OO5)O[C@H]3O[C@@]4(C)CC[C@@H]1[C@]32OO4 (stereo not given in full) to CCCCCC[C@@]1(C[C@@H]2C(=O)O[C@H]3O[C@@]4(C)CC[C@H]5[C@H](C)CC[C@@H]2[C@@]35OO4)O[C@H]2O[C@@]3(C)CC[C@H]4[C@H](C)CC[C@@H]([C@H]1C)[C@@]24OO3, the IC50 rises from 320 nM to 4000 nM (12-fold).

Test system: MDA-MB-231
Experiment: Antiproliferative activity against human MDA-MB-231 cells assessed as reduction in cell viability measured after 48 hrs by MTT assay
Assay type: functional, cell-based
Conditions: MDA-MB-231, 48 h

With C[C@@H]1CC[C@H]2[C@@H](C)C(OCCN/C(=N/c3cccc(F)c3)NCCOC3O[C@@H]4O[C@]5(C)CC[C@@H]6[C@@H](C)CC[C@H]([C@@H]3C)[C@]46OO5)O[C@H]3O[C@@]4(C)CC[C@@H]1[C@]32OO4 (stereo not given in full) the IC50 was 1330 nM.

Test system: Plasmodium falciparum
Experiment: Antimalarial activity against Plasmodium falciparum NF54 assessed as reduction in cell growth
Assay type: functional, organism-based
Conditions: not given

First: C[C@@H]1CC[C@H]2[C@@H](C)C(CC(COS(=O)(=O)c3cccc4c(N(C)C)cccc34)CC3O[C@H]4O[C@@]5(C)CC[C@H]6[C@H](C)CC[C@@H]([C@H]3C)[C@@]46OO5)O[C@H]3O[C@@]4(C)CC[C@@H]1[C@]32OO4 (stereo not given in full)
Second: C[C@@H]1CC[C@H]2[C@@H](C)C(CC(COC(=O)c3cc(=O)oc4cc(N(C)C)ccc34)CC3O[C@H]4O[C@@]5(C)CC[C@H]6[C@H](C)CC[C@@H]([C@H]3C)[C@@]46OO5)O[C@H]3O[C@@]4(C)CC[C@@H]1[C@]32OO4 (stereo not given in full)
The IC50 of the first is 1.6-fold higher: 3.9 nM for the first, 2.4 nM for the second. The second is the more potent here.

Compared with C[C@@H]1CC[C@H]2[C@@H](C)C(CC(COC(=O)c3ccncc3)CC3O[C@H]4O[C@@]5(C)CC[C@H]6[C@H](C)CC[C@@H]([C@H]3C)[C@@]46OO5)O[C@H]3O[C@@]4(C)CC[C@@H]1[C@]32OO4 (stereo not given in full), C[C@@H]1CC[C@H]2[C@@H](C)C(CC(=O)CC3O[C@H]4O[C@@]5(C)CC[C@H]6[C@H](C)CC[C@@H]([C@H]3C)[C@@]46OO5)O[C@H]3O[C@@]4(C)CC[C@@H]1[C@]32OO4 (stereo not given in full) is 1.9-fold lower in IC50: 1.7 nM for the first, 0.91 nM for the second. The second is the more potent here.

Going from C[C@@H]1CC[C@H]2[C@@H](C)C(CC(O)(COC(=O)CCC(=O)O)CC3O[C@H]4O[C@@]5(C)CC[C@H]6[C@H](C)CC[C@@H]([C@H]3C)[C@@]46OO5)O[C@H]3O[C@@]4(C)CC[C@@H]1[C@]32OO4 (stereo not given in full) to C[C@@H]1CC[C@H]2[C@@H](C)C(CC(O)(CO)CC3O[C@H]4O[C@@]5(C)CC[C@H]6[C@H](C)CC[C@@H]([C@H]3C)[C@@]46OO5)O[C@H]3O[C@@]4(C)CC[C@@H]1[C@]32OO4 (stereo not given in full), the IC50 falls from 3 nM to 0.59 nM (5.1-fold).

Going from C=C(CC1O[C@H]2O[C@@]3(C)CC[C@H]4[C@H](C)CC[C@@H]([C@H]1C)[C@@]24OO3)CC1O[C@H]2O[C@@]3(C)CC[C@H]4[C@H](C)CC[C@@H]([C@H]1C)[C@@]24OO3 (stereo not given in full) to C[C@@H]1CC[C@H]2[C@@H](C)C(CC3(CC4O[C@H]5O[C@@]6(C)CC[C@H]7[C@H](C)CC[C@@H]([C@H]4C)[C@@]57OO6)CO3)O[C@H]3O[C@@]4(C)CC[C@@H]1[C@]32OO4 (stereo not given in full), the IC50 falls from 24 nM to 2.8 nM (8.6-fold). The second is the more potent here.

C[C@@H]1CC[C@H]2[C@@H](C)C(CC(O)(CCS(=O)(=O)c3ccc(C(=O)O)cc3)CC3O[C@H]4O[C@@]5(C)CC[C@H]6[C@H](C)CC[C@@H]([C@H]3C)[C@@]46OO5)O[C@H]3O[C@@]4(C)CC[C@@H]1[C@]32OO4 (stereo not given in full) and C[C@@H]1CC[C@H]2[C@@H](C)C(CC(O)(CC3O[C@@H]4O[C@]5(C)CC[C@@H]6[C@@H](C)CC[C@H]([C@@H]3C)[C@]46OO5)c3ccc(C(=O)O)cc3)O[C@H]3O[C@@]4(C)CC[C@@H]1[C@]32OO4 (stereo not given in full) are within 1.5-fold of each other in IC50: 2.4 nM for the first, 2.1 nM for the second.

In the case of C[C@H]1[C@H](CC(=O)c2ccc(C(=O)CC[C@H]3O[C@H]4O[C@@]5(C)CC[C@H]6[C@H](C)CC[C@@H]([C@H]3C)[C@@]46OO5)cc2)O[C@H]2O[C@@]3(C)CC[C@H]4[C@H](C)CC[C@@H]1[C@@]24OO3, the IC50 is reported as 3.9 nM.

Test system: HT-29
Experiment: cells
Conditions: Homo sapiens, HT-29, 72 h

With C[C@@H]1CC[C@H]2[C@@H](C)C(OCCN/C(=N/c3cccc(F)c3)NCCOC3O[C@@H]4O[C@]5(C)CC[C@@H]6[C@@H](C)CC[C@H]([C@@H]3C)[C@]46OO5)O[C@H]3O[C@@]4(C)CC[C@@H]1[C@]32OO4 (stereo not given in full) the IC50 was 90 nM.

Test system: Plasmodium falciparum
Experiment: Antimalarial activity against Plasmodium falciparum K1 assessed as inhibition of malarial growth
Assay type: functional, organism-based
Conditions: not given

With C[C@@H]1CC[C@H]2[C@@H](C)C(CCOCc3ccc(COCCC4O[C@H]5O[C@@]6(C)CC[C@H]7[C@H](C)CC[C@@H]([C@H]4C)[C@@]57OO6)cc3)O[C@H]3O[C@@]4(C)CC[C@@H]1[C@]32OO4 (stereo not given in full) the IC50 was 2.4 nM.

Test system: not listed separately
Experiment: Cytotoxicity against African green monkey Vero cells
Assay type: toxicity, cell-based
Conditions: chlorocebus sabaeus, read-out: TC50 (the source's name)

CCCC[C@@]1(C[C@@H]2C(=O)O[C@H]3O[C@@]4(C)CC[C@H]5[C@H](C)CC[C@@H]2[C@@]35OO4)O[C@H]2O[C@@]3(C)CC[C@H]4[C@H](C)CC[C@@H]([C@H]1C)[C@@]24OO3 and CCC[C@@]1(C[C@@H]2C(=O)O[C@H]3O[C@@]4(C)CC[C@H]5[C@H](C)CC[C@@H]2[C@@]35OO4)O[C@H]2O[C@@]3(C)CC[C@H]4[C@H](C)CC[C@@H]([C@H]1C)[C@@]24OO3 cannot be ordered by CC50: > 130000 nM for the first, > 130000 nM for the second.

Compared with CCCCCC[C@@]1(C[C@@H]2C(=O)O[C@H]3O[C@@]4(C)CC[C@H]5[C@H](C)CC[C@@H]2[C@@]35OO4)O[C@H]2O[C@@]3(C)CC[C@H]4[C@H](C)CC[C@@H]([C@H]1C)[C@@]24OO3, CCN(CC)CCCC(C)Nc1ccnc2cc(Cl)ccc12 (stereo not given) [CHLOROQUINE] is higher in CC50: 2500 nM for the first, > 14900 nM for the second.
